Results on five compounds are retold here after US9359358B2, “Cyclohexyl azetidine derivatives as JAK inhibitors” (Incyte Holdings Corporation, priority 2011, dated 2016).

Counter-ions that a name gives are not always drawn. Bounds are passed on as bounds.

The target of one test is T1, human JAK1 (Homo sapiens, UniProt P23458).
T1 construct: human JAK1 (a.a. 837-1142); His tag (N); made in house; host or cells: insect cells (baculovirus)
In words: In Vitro JAK Kinase Assay (HTRF, phosphorylation of a biotinylated peptide), JAK1. It counts as biochemical. Conditions: Table 4; catalytic domain a.a. 837-1142, assay of Example A. The essentials: (§1)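 HTRF detection (SA-APC plus Eu-labeled anti-phosphotyrosine Py20, 40 min after EDTA stop) quantified biotinylated-peptide phosphorylation. Kinase reactions with human JAK1 or JAK2 catalytic domains lasted 1 h at room temperature.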

The target in another test is T2, human JAK2 (Homo sapiens, UniProt O60674).
T2 construct: JAK2 (a.a. 828-1132); His tag (N); made in house; host or cells: insect cells (baculovirus)
T2 sequence (O60674 828-1132): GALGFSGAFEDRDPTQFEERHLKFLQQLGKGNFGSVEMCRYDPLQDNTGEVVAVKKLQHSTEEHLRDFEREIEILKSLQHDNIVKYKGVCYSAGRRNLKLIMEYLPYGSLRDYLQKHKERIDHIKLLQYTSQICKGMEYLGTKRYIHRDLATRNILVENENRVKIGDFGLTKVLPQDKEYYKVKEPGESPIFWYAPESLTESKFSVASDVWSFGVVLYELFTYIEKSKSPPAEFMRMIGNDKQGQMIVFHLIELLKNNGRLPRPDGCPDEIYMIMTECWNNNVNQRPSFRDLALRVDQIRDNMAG
In words: In Vitro JAK Kinase Assay (HTRF, phosphorylation of a biotinylated peptide), JAK2. It counts as biochemical. The note with it: Table 4; assay of Example A. An outline of the steps: as §1

T1 sequence (P23458 849-1154): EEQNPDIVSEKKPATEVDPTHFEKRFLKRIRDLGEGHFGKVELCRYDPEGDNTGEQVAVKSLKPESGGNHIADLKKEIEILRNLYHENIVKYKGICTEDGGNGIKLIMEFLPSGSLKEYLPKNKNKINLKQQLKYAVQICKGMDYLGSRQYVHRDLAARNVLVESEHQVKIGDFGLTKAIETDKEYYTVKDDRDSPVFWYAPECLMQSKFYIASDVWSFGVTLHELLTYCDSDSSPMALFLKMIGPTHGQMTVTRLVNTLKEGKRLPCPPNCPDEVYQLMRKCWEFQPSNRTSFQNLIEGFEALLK

For the compound `CCN(CCO)Cc1cc(O[C@H]2CC[C@@H](N3CC(CC#N)(n4cc(-c5ncnc6[nH]ccc56)cn4)C3)CC2)nc(C(F)(F)F)n1` [Example 13, {1-(cis-4-{[6-{[ethyl(2-hydroxyethyl)amino]methyl}-2-(trifluoromethyl)pyrimidin-4-yl]oxy}cyclohexyl)-3-[4-(7H-pyrrolo[2,3-d]pyrimidin-4-yl)-1H-pyrazol-1-yl]azetidin-3-yl}acetonitrile tris(trifluoroacetate) (salt)], the IC50 against human JAK1 is < 10 nM. The “JAK2/JAK1 IC50 ratio” value on human JAK2 was “≧10”.

In the case of `N#CCC1(n2cc(-c3ncnc4[nH]ccc34)cn2)CN([C@H]2CC[C@@H](Oc3cc(CN4CC(O)C4)nc(C(F)(F)F)n3)CC2)C1` [Example 24, {1-(cis-4-{[6-[(3-hydroxyazetidin-1-yl)methyl]-2-(trifluoromethyl)pyrimidin-4-yl]oxy}cyclohexyl)-3-[4-(7H-pyrrolo[2,3-d]pyrimidin-4-yl)-1H-pyrazol-1-yl]azetidin-3-yl}acetonitrile tris(trifluoroacetate) (salt)], at human JAK1, the IC50 was < 10 nM. Besides, the “JAK2/JAK1 IC50 ratio” value at human JAK2 is reported as “≧10”.

`N#CCC1(n2cc(-c3ncnc4[nH]ccc34)cn2)CN([C@H]2CC[C@@H](Oc3cc(CNCCO)nc(C(F)(F)F)n3)CC2)C1` [Example 11, {1-(cis-4-{[6-{[(2-hydroxyethyl)amino]methyl}-2-(trifluoromethyl)pyrimidin-4-yl]oxy}cyclohexyl)-3-[4-(7H-pyrrolo[2,3-d]pyrimidin-4-yl)-1H-pyrazol-1-yl]azetidin-3-yl}acetonitrile tris(trifluoroacetate) (salt)]: the IC50 at human JAK1 is < 10 nM. The “JAK2/JAK1 IC50 ratio” value at human JAK2 was “≧10”.

As to `CCN(C)Cc1cc(O[C@H]2CC[C@@H](N3CC(CC#N)(n4cc(-c5ncnc6[nH]ccc56)cn4)C3)CC2)nc(C(F)(F)F)n1.O=C(O)C(F)(F)F.O=C(O)C(F)(F)F.O=C(O)C(F)(F)F` [Example 8, {1-(cis-4-{[6-{[ethyl(methyl)amino]methyl}-2-(trifluoromethyl)pyrimidin-4-yl]oxy}cyclohexyl)-3-[4-(7H-pyrrolo[2,3-d]pyrimidin-4-yl)-1H-pyrazol-1-yl]azetidin-3-yl}acetonitrile tris(trifluoroacetate)], on human JAK1, the IC50 was < 10 nM. In addition, the “JAK2/JAK1 IC50 ratio” value on human JAK2 is listed as “≧10”.

Consider `CC(CO)c1cc(OC2CCC(N3CC(CC#N)(n4cc(-c5ncnc6[nH]ccc56)cn4)C3)CC2)nc(C(F)(F)F)n1` (single isomer, unassigned) [Example 59a, {1-(cis-4-{[6-(2-hydroxy-1-methylethyl)-2-(trifluoromethyl)pyrimidin-4-yl]oxy}cyclohexyl)-3-[4-(7H-pyrrolo[2,3-d]pyrimidin-4-yl)-1H-pyrazol-1-yl]azetidin-3-yl}acetonitrile bis(trifluoroacetate) (salt)], for which, at human JAK1, the IC50 is < 10 nM. Moreover, the “JAK2/JAK1 IC50 ratio” value at human JAK2 is given as “≧10”.
